Measured values published in patent US20260256792A1, “TREATMENT OF CHRONIC SPONTANEOUS URTICARIA BY ADMINISTERING (R)-2-[3-[4-AMINO-3-(2-FLUORO-4-PHENOXY-PHENYL)PYRAZOLO[3,4-D]PYRIMIDIN-1-YL]PIPERIDINE-1-CARBONYL]-4-METHYL-4-[4-(OXETAN-3-YL)PIPERAZIN-1-YL]PENT-2-ENENITRILE” (priority 2023, published 2026).

System: moderate-to-severe chronic spontaneous urticaria (CSU)
Assay: Phase 2 CSU study: urticaria activity score over 7 days (UAS7)
Type: in vivo, human
Parameters: key to UAS7 Median / UAS7 Change from baseline Median / UAS7 change from baseline, Q1 / UAS7 change from baseline, Q3 / UAS7 change from baseline, Max / UAS7 Change from baseline LS Mean (SE): UAS7 points; daily UAS score ranges 0–6 points/day, over 7 days
Excerpt: The study comprises a 12 week, randomized, double-blind, placebo-controlled, multi-center, dose-ranging efficacy and safety phase, followed by a 40 week open label extension (OLE) phase (see FIG. 1). The study consists of three phases and an optional OLE phase. […] Clinically, CSU is characterized by the spontaneous and recurrent appearance of pruritic hives. The proposed primary endpoints were the UAS7 at Week 12 in EU and EU reference countries and the ISS7 in the US. Regardless of where a participant was from, all assessments were the same. The UAS7 score is a composite score containing both the HSS7 and the ISS7. This allowed a global assessment of the two key components of urticaria: hives and itch. […] The UAS is a validated PRO measure. […] The daily UAS scores range from 0 to 6 point/day. […] Patients were to complete the UAS using the e-diary. […] The following secondary endpoints were to be analyzed using the same approach as for the primary endpoint: • Change from baseline in UAS7 at Week 4 • Change from baseline in UAS7 at Week 12 (for US and US reference countries) • Change from baseline in ISS7 at Week 12 (except US and US reference countries) • Change from baseline in HSS7 at Week 12 The following responder secondary endpoints were to be analyzed using the Cochran-Mantel-Haenszel test adjusted by region: • Proportion of participants with UAS7<6 at Week 12 • Proportion of participants with UAS7=0 at Week 12 Participants who received selected prohibited medications and/or rescue medications were to be considered as non-responders for time points after the medication usage. For other participants, all available data including those collected during the off-treatment period were to be used to determine the responder/non-responder status. Missing data were to be considered as non-responders.

[1] = Week 2, 400 mg TID, ITT population
[2] = Week 2, 400 mg TID, Omalizumab-Naïve
[3] = Week 2, 400 mg TID, Prior Omalizumab Use
[4] = Week 2, 400 mg TID, omalizumab-naive participants
[5] = Week 3, 400 mg BID, ITT population
[6] = Week 3, 400 mg BID, Omalizumab-Naïve
[7] = Week 3, 400 mg BID, Prior Omalizumab Use
[8] = Week 3, 400 mg BID, omalizumab-naive participants
[9] = Week 3, 400 mg QPM, ITT population
[10] = Week 3, 400 mg QPM, Omalizumab-Naïve
[11] = Week 3, 400 mg QPM, Prior Omalizumab Use
[12] = Week 3, 400 mg QPM, omalizumab-naive participants
[13] = Week 3, 400 mg TID, ITT population
[14] = Week 3, 400 mg TID, Omalizumab-Naïve

## CC(C)(C=C(C#N)C(=O)N1CCC[C@@H](n2nc(-c3ccc(Oc4ccccc4)cc3F)c3c(N)ncnc32)C1)N1CCN(C2COC2)CC1 [rilzabrutinib, (R)-2-[3-[4-amino-3-(2-fluoro-4-phenoxy-phenyl)pyrazolo[3,4-d]pyrimidin-1-yl]piperidine-1-carbonyl]-4-methyl-4-[4-(oxetan-3-yl)piperazin-1-yl]pent-2-enenitrile]
[1]
  OR for rilzabrutinib vs. placebo, UAS7 reduction of 10 points or more: 5.982
  RRD (%) for rilzabrutinib vs. placebo, UAS7 reduction of 10 points or more: 40.6 %
  Responder, UAS7 reduction from baseline of 10 points or more: 28 (68.3) n (%)
[2]
  UAS7 Change from baseline Mean (SD): −13.69 (11.66)
  UAS7 Change from baseline Median: −11.00
  UAS7 Mean (SD): 15.65 (10.66)
  UAS7 Median: 14.00
  UAS7 Percent change from baseline Mean (SD): −45.70 (36.18) %
  UAS7 Percent change from baseline Median: −46.67%
[3]
  UAS7 Change from baseline Mean (SD): −24.69 (11.86)
  UAS7 Change from baseline Median: −22.50
  UAS7 Mean (SD): 8.33 (9.77)
  UAS7 Median: 5.50
  UAS7 Percent change from baseline Mean (SD): −75.38 (23.12) %
  UAS7 Percent change from baseline Median: −73.96%
[4]
  Non-responder, UAS7 reduction from baseline of 10 points or more: 13 (37.1) n (%)
  OR for rilzabrutinib vs. placebo, UAS7 reduction of 10 points or more: 5.505
  RRD (%) for rilzabrutinib vs. placebo, UAS7 reduction of 10 points or more: 39.0 %
  Responder, UAS7 reduction from baseline of 10 points or more: 22 (62.9) n (%)
[5]
  Non-responder, UAS7 reduction from baseline of 10 points or more: 20 (48.8) n (%)
  OR for rilzabrutinib vs. placebo, UAS7 reduction of 10 points or more: 2.109
  RRD (%) for rilzabrutinib vs. placebo, UAS7 reduction of 10 points or more: 18.0 %
  Responder, UAS7 reduction from baseline of 10 points or more: 21 (51.2) n (%)
[6]
  UAS7 Change from baseline Mean (SD): −12.02 (10.63)
  UAS7 Change from baseline Median: −9.00
  UAS7 Mean (SD): 17.71 (11.91)
  UAS7 Median: 16.80
  UAS7 Percent change from baseline Mean (SD): −41.11 (35.05) %
  UAS7 Percent change from baseline Median: −32.14%
[7]
  UAS7 Change from baseline Mean (SD): −15.81 (16.39)
  UAS7 Change from baseline Median: −15.00
  UAS7 Mean (SD): 17.19 (13.86)
  UAS7 Median: 18.58
  UAS7 Percent change from baseline Mean (SD): −44.47 (44.78) %
  UAS7 Percent change from baseline Median: −41.73%
[8]
  Non-responder, UAS7 reduction from baseline of 10 points or more: 18 (51.4) n (%)
  OR for rilzabrutinib vs. placebo, UAS7 reduction of 10 points or more: 2.057
  RRD (%) for rilzabrutinib vs. placebo, UAS7 reduction of 10 points or more: 17.2 %
  Responder, UAS7 reduction from baseline of 10 points or more: 17 (48.6) n (%)
[9]
  Non-responder, UAS7 reduction from baseline of 10 points or more: 22 (57.9) n (%)
  OR for rilzabrutinib vs. placebo, UAS7 reduction of 10 points or more: 1.663
  RRD (%) for rilzabrutinib vs. placebo, UAS7 reduction of 10 points or more: 11.7 %
  Responder, UAS7 reduction from baseline of 10 points or more: 16 (42.1) n (%)
[10]
  UAS7 Change from baseline Mean (SD): −9.10 (8.78)
  UAS7 Change from baseline Median: −7.00
  UAS7 Mean (SD): 22.01 (9.00)
  UAS7 Median: 22.00
  UAS7 Percent change from baseline Mean (SD): −28.09 (25.63) %
  UAS7 Percent change from baseline Median: −26.67%
[11]
  UAS7 Change from baseline Mean (SD): −22.00 (NC)
  UAS7 Change from baseline Median: −22.00
  UAS7 Mean (SD): 19.00 (NC)
  UAS7 Median: 19.00
  UAS7 Percent change from baseline Mean (SD): −53.66 (NC) %
  UAS7 Percent change from baseline Median: −53.66%
[12]
  Non-responder, UAS7 reduction from baseline of 10 points or more: 22 (59.5) n (%)
  OR for rilzabrutinib vs. placebo, UAS7 reduction of 10 points or more: 1.665
  RRD (%) for rilzabrutinib vs. placebo, UAS7 reduction of 10 points or more: 11.4 %
  Responder, UAS7 reduction from baseline of 10 points or more: 15 (40.5) n (%)
[13]
  Non-responder, UAS7 reduction from baseline of 10 points or more: 14 (34.1) n (%)
  OR for rilzabrutinib vs. placebo, UAS7 reduction of 10 points or more: 3.444
  RRD (%) for rilzabrutinib vs. placebo, UAS7 reduction of 10 points or more: 31.4 %
  Responder, UAS7 reduction from baseline of 10 points or more: 27 (65.9) n (%)
[14]
  UAS7 Change from baseline Mean (SD): −13.97 (12.14)
  UAS7 Change from baseline Median: −14.00
  UAS7 Mean (SD): 15.37 (9.87)
  UAS7 Median: 14.00
